Test results: patent US8835411B2, “HIV integrase inhibitors” (priority 2010, dated 2014)
pEC50: −log10 of the molar value.

Tested on: recombinant NL-Rluc virus
Test: Inhibition of HIV Replication: recombinant NL-Rluc virus, Renilla luciferase reporter
Type: cell-based
Conditions: read-out: Cell Culture, serum condition of the table not stated (10% FBS, 15 mg/ml human serum albumin/10% FBS or 40% human serum/5% FBS), at least 2 experiments

CC(=O)NC12CCC(NC(=O)C(=O)N(C)C)(CC1)c1nc(C(=O)NCc3ccc(F)c(C)c3)c(O)c(=O)n1C2 [Example 90]
pEC50: > 8.00
